Format in all cases: biochemical
One assay has as its target SIK3 (Homo sapiens, UniProt Q9Y2K2). As to the kind of experiment: Enzymatic activity assay SIK3, RapidFire mass spectrometry (phosphorylation of CHK-peptide). The settings on record: RapidFire MS, inhibition of SIK3; read-out: SIK3 RF IC50. The procedure, abridged: (§1)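 Compounds (12-point, 3-fold, generally 30 μM to 170 pM) were pre-incubated 30 min at ambient temperature with SIK1 (5 nM), SIK2 (0.5 nM) or SIK3 (1.5 nM) in HEPES pH 7.0/magnesium acetate buffer. CHK-peptide (10 μM solution) and ATP (100 μM solution) were then added for 45 min before formic acid quench.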

In the next assay the target is SIK2 (Homo sapiens, UniProt Q9H0K1). In words: Enzymatic activity assay SIK2, RapidFire mass spectrometry (phosphorylation of CHK-peptide). Conditions: RapidFire MS, inhibition of SIK2; read-out: SIK2 RF IC50. The procedure, abridged:
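SIK2 (0.5 nM) in pH 7.0 HEPES buffer with 10 mM Mg acetate phosphorylates CHK-peptide (10 μM solution) with 100 μM ATP solution, 45 min ambient, then formic acid quench.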

The next assay addresses SIK1 (Homo sapiens, UniProt P57059). In words: Enzymatic activity assay SIK1, RapidFire mass spectrometry (phosphorylation of CHK-peptide). The settings on record: RapidFire MS, inhibition of SIK1; read-out: SIK1 RF IC50. The procedure, abridged: as §1

SMILES strings stand for the structures.

SIK2, sequence (Q9H0K1 whole entry): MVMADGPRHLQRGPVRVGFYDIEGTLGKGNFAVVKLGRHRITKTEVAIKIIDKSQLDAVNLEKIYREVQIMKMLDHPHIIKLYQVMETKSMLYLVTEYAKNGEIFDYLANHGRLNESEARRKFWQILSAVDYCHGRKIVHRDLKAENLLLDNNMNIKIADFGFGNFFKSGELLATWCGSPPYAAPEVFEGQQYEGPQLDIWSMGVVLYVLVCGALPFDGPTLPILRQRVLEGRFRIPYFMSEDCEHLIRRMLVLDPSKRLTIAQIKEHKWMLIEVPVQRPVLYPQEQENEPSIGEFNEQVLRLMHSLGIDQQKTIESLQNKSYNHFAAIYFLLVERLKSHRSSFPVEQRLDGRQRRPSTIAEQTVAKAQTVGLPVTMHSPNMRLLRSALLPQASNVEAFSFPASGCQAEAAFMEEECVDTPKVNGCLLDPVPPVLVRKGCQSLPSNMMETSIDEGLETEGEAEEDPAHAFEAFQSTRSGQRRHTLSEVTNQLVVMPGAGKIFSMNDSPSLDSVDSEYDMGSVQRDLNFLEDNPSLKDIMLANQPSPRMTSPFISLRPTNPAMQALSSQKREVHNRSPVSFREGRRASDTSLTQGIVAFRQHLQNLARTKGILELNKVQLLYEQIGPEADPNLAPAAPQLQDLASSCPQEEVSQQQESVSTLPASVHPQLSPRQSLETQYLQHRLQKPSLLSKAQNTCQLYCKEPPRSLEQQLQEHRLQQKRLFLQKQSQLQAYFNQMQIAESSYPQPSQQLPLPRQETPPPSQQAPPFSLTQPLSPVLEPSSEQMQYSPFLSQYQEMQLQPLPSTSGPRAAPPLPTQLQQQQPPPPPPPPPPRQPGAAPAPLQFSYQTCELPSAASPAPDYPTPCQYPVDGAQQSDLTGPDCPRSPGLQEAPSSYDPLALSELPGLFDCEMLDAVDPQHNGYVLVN
SIK3, sequence (Q9Y2K2 whole entry): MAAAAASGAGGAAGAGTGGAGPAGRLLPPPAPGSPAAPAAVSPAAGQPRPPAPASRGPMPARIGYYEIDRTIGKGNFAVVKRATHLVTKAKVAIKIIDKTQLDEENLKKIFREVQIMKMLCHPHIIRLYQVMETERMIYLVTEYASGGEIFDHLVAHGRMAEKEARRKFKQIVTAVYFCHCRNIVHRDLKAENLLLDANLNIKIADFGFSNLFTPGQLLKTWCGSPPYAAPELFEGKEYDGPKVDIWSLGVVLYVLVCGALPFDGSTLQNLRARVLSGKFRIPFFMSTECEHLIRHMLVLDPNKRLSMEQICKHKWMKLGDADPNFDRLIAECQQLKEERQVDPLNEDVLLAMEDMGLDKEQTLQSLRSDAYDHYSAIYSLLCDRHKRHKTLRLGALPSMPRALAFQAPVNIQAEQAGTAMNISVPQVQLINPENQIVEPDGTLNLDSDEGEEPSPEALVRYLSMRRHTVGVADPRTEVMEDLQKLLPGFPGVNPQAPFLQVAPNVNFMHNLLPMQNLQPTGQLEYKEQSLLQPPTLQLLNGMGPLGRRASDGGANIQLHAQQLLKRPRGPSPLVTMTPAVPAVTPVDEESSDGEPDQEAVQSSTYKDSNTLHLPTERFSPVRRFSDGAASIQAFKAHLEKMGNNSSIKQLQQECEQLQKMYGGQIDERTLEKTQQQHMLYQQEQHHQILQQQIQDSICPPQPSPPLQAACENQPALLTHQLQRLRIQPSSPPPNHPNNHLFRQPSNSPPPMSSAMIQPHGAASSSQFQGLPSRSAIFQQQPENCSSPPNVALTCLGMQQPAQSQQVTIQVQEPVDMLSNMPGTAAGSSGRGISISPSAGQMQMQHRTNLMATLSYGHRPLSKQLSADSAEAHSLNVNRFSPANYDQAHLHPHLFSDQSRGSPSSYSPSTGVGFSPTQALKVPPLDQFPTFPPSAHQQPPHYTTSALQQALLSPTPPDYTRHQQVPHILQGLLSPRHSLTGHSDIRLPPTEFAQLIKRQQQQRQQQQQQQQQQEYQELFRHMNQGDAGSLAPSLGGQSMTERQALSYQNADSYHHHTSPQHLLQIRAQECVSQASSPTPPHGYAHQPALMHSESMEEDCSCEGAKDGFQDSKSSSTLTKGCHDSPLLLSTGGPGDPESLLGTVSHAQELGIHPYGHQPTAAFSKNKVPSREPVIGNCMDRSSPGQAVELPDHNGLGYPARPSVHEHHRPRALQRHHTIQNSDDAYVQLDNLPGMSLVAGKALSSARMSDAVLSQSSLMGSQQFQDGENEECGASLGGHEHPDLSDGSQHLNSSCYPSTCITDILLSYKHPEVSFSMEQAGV
SIK1, sequence (P57059 whole entry): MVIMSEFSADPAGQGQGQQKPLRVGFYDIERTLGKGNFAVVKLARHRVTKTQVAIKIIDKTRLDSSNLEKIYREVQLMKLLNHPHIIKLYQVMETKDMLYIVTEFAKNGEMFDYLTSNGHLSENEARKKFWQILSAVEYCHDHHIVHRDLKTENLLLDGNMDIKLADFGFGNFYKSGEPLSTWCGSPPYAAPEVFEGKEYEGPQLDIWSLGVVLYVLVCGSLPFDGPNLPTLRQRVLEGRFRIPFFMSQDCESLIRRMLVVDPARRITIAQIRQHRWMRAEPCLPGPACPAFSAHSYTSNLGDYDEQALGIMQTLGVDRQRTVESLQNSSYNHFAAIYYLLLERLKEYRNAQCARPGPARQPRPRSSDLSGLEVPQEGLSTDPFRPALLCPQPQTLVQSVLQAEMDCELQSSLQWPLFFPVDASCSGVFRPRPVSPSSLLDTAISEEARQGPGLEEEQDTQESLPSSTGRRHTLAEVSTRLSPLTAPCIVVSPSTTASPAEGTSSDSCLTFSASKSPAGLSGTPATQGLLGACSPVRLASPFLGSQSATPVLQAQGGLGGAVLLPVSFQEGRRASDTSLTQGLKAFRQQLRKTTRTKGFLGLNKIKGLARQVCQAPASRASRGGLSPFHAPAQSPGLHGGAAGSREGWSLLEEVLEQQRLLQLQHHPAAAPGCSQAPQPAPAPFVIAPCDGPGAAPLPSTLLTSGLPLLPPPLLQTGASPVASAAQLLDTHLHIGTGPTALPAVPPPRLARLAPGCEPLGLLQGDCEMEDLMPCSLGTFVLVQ

In the case of `Cc1ccc(Nc2ccc3c(c2)ncn3-c2ccc(C(C)O)c(N3CCNC4(CC4)C3)n2)nn1` (stereo not drawn) [Example 329, 1-[2-(4,7-diazaspiro[2.5]octan-7-yl)-6-[5-[(6-methylpyridazin-3-yl)amino]benzimidazol-1-yl]-3-pyridyl]ethanol], the IC50 – broadly, the concentration at which inhibition is half-maximal – at SIK3 stood at 10 nM; at SIK2, 59 nM; at SIK1, 1740 nM.

On to `Cc1cc(C#N)nn1-c1nc(-n2cnc3cc(N4CC[C@H]5CNC(=O)[C@H]54)ccc32)ccc1C(C)O` (stereo partly drawn) [Example 330, 1-[6-[5-[(3aS,6aS)-6-oxo-2,3,3a,4,5,6a-hexahydropyrrolo[2,3-c]pyrrol-1-yl]benzimidazol-1-yl]-3-(1-hydroxyethyl)-2-pyridyl]-5-methylpyrazole-3-carbonitrile], for which the IC50 at SIK3 was 51.3 nM; on SIK2, 26 nM; on SIK1, 113 nM.

On to `Cc1ccc(Nc2ccc3c(c2)ncn3-c2ccc(C(C)O)c(N3CCNC(C(F)(F)F)C3)n2)nn1` (stereo not drawn) [Example 331, 1-[6-[5-[(6-methylpyridazin-3-yl)amino]benzimidazol-1-yl]-2-[3-(trifluoromethyl)piperazin-1-yl]-3-pyridyl]ethanol], for which the concentration for half-maximal inhibition (IC50) on SIK3 was 9.3 nM; on SIK2 it was 71.5 nM; at SIK1, 3340 nM.

On to `Cc1ccc(Nc2ccc3c(c2)ncn3-c2ccc(C(C)O)c(-c3cc(C(F)(F)F)ncc3C)n2)nn1` (stereo not drawn) [Example 332, 1-[6-[5-[(6-methylpyridazin-3-yl)amino]benzimidazol-1-yl]-2-[5-methyl-2-(trifluoromethyl)-4-pyridyl]-3-pyridyl]ethanol], for which the half-maximal inhibitory concentration (IC50) amounted to 2.8 nM at SIK3, 5.3 nM on SIK2 and 316 nM on SIK1.

With `Cc1cc(C#N)nn1-c1nc(-n2cnc3cc(Nc4cccn(C)c4=O)ccc32)ccc1C(C)O` (stereo not drawn) [Example 333, 1-[3-(1-hydroxyethyl)-6-[5-[(2-keto-1-methyl-3-pyridyl)amino]benzimidazol-1-yl]-2-pyridyl]-5-methyl-pyrazole-3-carbonitrile], the concentration for half-maximal inhibition (IC50) worked out at 19.4 nM on SIK3, 25.1 nM on SIK2 and 41 nM on SIK1.

Regarding `COc1nn(C)cc1-c1ccc2c(c1)ncn2-c1ccc(C(C)O)c(-n2nc(C#N)cc2C)n1` (stereo not drawn) [Example 334, 1-[3-(1-hydroxyethyl)-6-[5-(3-methoxy-1-methyl-pyrazol-4-yl)benzimidazol-1-yl]-2-pyridyl]-5-methyl-pyrazole-3-carbonitrile], the 50% inhibitory concentration (IC50) at SIK3 was 3.4 nM; on SIK2 it was 1.6 nM; on SIK1, 3 nM.

In the case of `Cc1ccc(Nc2ccc3c(c2)ncn3-c2ccc(C(C)O)c(-c3cc(C(F)F)ncc3C)n2)nn1` (stereo not drawn) [Example 335, 1-[2-[2-(difluoromethyl)-5-methyl-4-pyridyl]-6-[5-[(6-methlpyridazin-3-yl)amino]benzimidazol-1-yl]-3-pyridyl]ethanol], the results for the 50% inhibitory concentration (IC50) at SIK3, on SIK2 and at SIK1 were 0.3 nM, 1 nM and 10 nM, respectively.

As for `Cc1cc(C#N)nn1-c1nc(-n2cnc3ccc(-c4ccn(C)c(=O)n4)cc32)ccc1C(C)O` (stereo not drawn) [Example 336, 1-[3-(1-hydroxyethyl)-6-[6-(1-methyl-2-oxo-pyrimidin-4-yl)benzimidazol-1-yl]-2-pyridyl]-5-methyl-pyrazole-3-carbonitrile], the figures for the 50% inhibitory concentration (IC50) on SIK3, on SIK2 and at SIK1 were 139 nM, 28.6 nM and 29 nM, respectively.

Take `Cc1cc(C(F)F)nn1-c1nc(-n2cnc3cc(Nc4ccc(C5(C)OCCO5)nn4)c(F)cc32)ccc1C(C)O` (stereo not drawn) [Example 337, 1-[2-[3-(difluoromethyl)-5-methyl-pyrazol-1-yl]-6-[6-fluoro-5-[[6-(2-methyl-1,3-dioxolan-2-yl)pyridazin-3-yl]amino]benzimidazol-1-yl]-3-pyridyl]ethanol]: the IC50 on SIK3 was determined as 4.8 nM; at SIK2 it was 8.3 nM; on SIK1, 1200 nM.

For `Cc1cc(C#N)nn1-c1nc(-n2cnc3cc(-c4ccn(C)c(=O)n4)ccc32)ccc1C(C)O` (stereo not drawn) [Example 338, 1-[3-(1-hydroxyethyl)-6-[5-(1-methyl-2-oxo-pyrimidin-4-yl)benzimidazol-1-yl]-2-pyridyl]-5-methyl-pyrazole-3-carbonitrile], the concentration for half-maximal inhibition (IC50) at SIK3 was 27.6 nM; on SIK2, 27.2 nM; at SIK1 it was 87 nM.

For `Cc1ccc(-c2ccc3ncn(-c4ccc(C(C)O)c(-n5nc(C#N)cc5C)n4)c3c2)nn1` (stereo not drawn) [Example 339, 1-[3-(1-hydroxyethyl)-6-[6-(6-methylpyridazin-3-yl)benzimidazol-1-yl]-2-pyridyl]-5-methyl-pyrazole-3-carbonitrile], the half-inhibitory concentration (IC50) is 301 nM on SIK3, 29.7 nM on SIK2 and 32 nM at SIK1.

In the case of `Cc1ccc(-c2ccc3c(c2)ncn3-c2ccc(C(C)O)c(-n3nc(C#N)cc3C)n2)nn1` (stereo not drawn) [Example 340, 1-[3-(1-hydroxyethyl)-6-[5-(6-methylpyridazin-3-yl)benzimidazol-1-yl]-2-pyridyl]-5-methyl-pyrazole-3-carbonitrile], the IC50 amounted to 17.9 nM on SIK3, 20.3 nM at SIK2 and 42 nM at SIK1.

Turning to `Cc1cc(C#N)nn1-c1nc(-n2cnc3ccc(N4CCC[C@H]4C#N)cc32)ccc1C(C)O` (stereo partly drawn) [Example 341, 1-[6-[6-[(2S)-2-cyanopyrrolidin-1-yl]benzimidazol-1-yl]-3-(1-hydroxyethyl)-2-pyridyl]-5-methyl-pyrazole-3-carbonitrile], the IC50 worked out at 124 nM at SIK3, 15.1 nM at SIK2 and 14 nM on SIK1.

For `Cc1cc(C#N)nn1-c1nc(-n2cnc3cc(N4CCC[C@H]4C#N)ccc32)ccc1C(C)O` (stereo partly drawn) [Example 342, 1-[6-[5-[(2S)-2-cyanopyrrolidin-1-yl]benzimidazol-1-yl]-3-(1-hydroxyethyl)-2-pyridyl]-5-methyl-pyrazole-3-carbonitrile], the IC50 was determined as 16.1 nM at SIK3, 9.5 nM on SIK2 and 22 nM on SIK1.

Regarding `Cc1cc(C#N)nn1-c1nc(-n2cnc3ccc(N4CC[C@H]5CNC(=O)[C@H]54)cc32)ccc1C(C)O` (stereo partly drawn) [Example 343, 1-[6-[6-[(3aS,6aS)-6-oxo-2,3,3a,4,5,6a-hexahydropyrrolo[2,3-c]pyrrol-1-yl]benzimidazol-1-yl]-3-(1-hydroxyethyl)-2-pyridyl]-5-methyl-pyrazole-3-carbonitrile], the 50% inhibitory concentration (IC50) on SIK3 was 63 nM; on SIK2 it was 22 nM; on SIK1 it was 5 nM.

On to `Cc1ccc(Nc2ccc3c(c2)ncn3-c2ccc(C(C)O)c(-n3nc(C(F)F)nc3C)n2)nn1` (stereo not drawn) [Example 344, 1-[2-[3-(difluoromethyl)-5-methyl-1,2,4-triazol-1-yl]-6-[5-[(6-methylpyridazin-3-yl)amino]benzimidazol-1-yl]-3-pyridyl]ethanol], for which the IC50 stood at 3.2 nM at SIK3, 20.2 nM at SIK2 and 1570 nM on SIK1.

`Cc1cc(C(=O)N(C)C)c(Nc2cc3ncn(-c4ccc([C@H](C)O)c(-n5nc(C(F)F)cc5C)n4)c3cc2F)nn1` [Example 345, 3-[[1-[6-[3-(difluoromethyl)-5-methyl-pyrazol-1-yl]-5-[(1~{S})-1-hydroxyethyl]-2-pyridyl]-6-fluoro-benzimidazol-5-yl]amino]-~{N},~{N},6-trimethyl-pyridazine-4-carboxamide]: the IC50 came to 60.2 nM at SIK3, 48.9 nM on SIK2 and 17200 nM at SIK1.

Consider `Cc1ccc(Nc2cc3ncn(-c4ccc(C(C)O)c(-c5cc(OC(F)F)ncc5C)n4)c3cc2F)nn1` (stereo not drawn) [Example 346, 1-[2-[2-(difluoromethoxy)-5-methyl-4-pyridyl]-6-[6-fluoro-5-[(6-methylpyridazin-3-yl)amino]benzimidazol-1-yl]-3-pyridyl]ethanol], for which the IC50 on SIK3 worked out at 1.4 nM; on SIK2, 1 nM; at SIK1, 133 nM.

Turning to `Cc1ccc(Nc2cc3ncn(-c4ccc(CO)c(-n5nc(C#N)cc5C)n4)c3cc2F)nn1` [Example 347, 1-[6-[6-fluoro-5-[(6-methylpyridazin-3-yl)amino]benzimidazol-1-yl]-3-(hydroxymethyl)-2-pyridyl]-5-methyl-pyrazole-3-carbonitrile], the IC50 at SIK3 is 3.9 nM; on SIK2, 6.3 nM; on SIK1 it was 1120 nM.

As for `Cc1cc(C(=O)N(C)C)c(Nc2ccc3c(c2)ncn3-c2ccc(CO)c(-n3nc(C(F)F)cc3C(F)F)n2)nn1` [Example 348, 3-[[1-[6-[3,5-bis(difluoromethyl)pyrazol-1-yl]-5-(hydroxymethyl)-2-pyridyl]benzimidazol-5-yl]amino]-N,N,6-trimethyl-pyridazine-4-carboxamide], the IC50 at SIK3 was determined as 37.1 nM; at SIK2 it was 32.2 nM; at SIK1, 14500 nM.

`Cc1ccc(Nc2ccc3c(c2)ncn3-c2ccc(C(C)O)c(-c3nn(CC(F)(F)F)cc3C)n2)nn1` (stereo not drawn) [Example 349, 1-[6-[5-[(6-methylpyridazin-3-yl)amino]benzimidazol-1-yl]-2-[4-methyl-1-(2,2,2-trifluoroethyl)pyrazol-3-yl]-3-pyridyl]ethanol]: the results for the half-maximal inhibitory concentration (IC50) at SIK3, on SIK2 and on SIK1 were 6.6 nM, 5.3 nM and 432 nM, respectively.

`Cc1nn(CC(F)(F)F)cc1-c1nc(-n2cnc3cc(Oc4ccc(CN5CCOCC5)nn4)ccc32)ccc1C(C)O` (stereo not drawn) [Example 350, 1-[2-[3-methyl-1-(2,2,2-trifluoroethyl)pyrazol-4-yl]-6-[5-[6-(morpholinomethyl)pyridazin-3-yl]oxybenzimidazol-1-yl]-3-pyridyl]ethanol]: the values for the IC50 on SIK3, on SIK2 and on SIK1 were 60.6 nM, 67 nM and 3800 nM, respectively.

For the origin of these results see patent publication US20240383875A1, “Benzimidazole Pyridine Derivatives” (Hoffmann-La Roche Inc., priority 2022, published 2024).
